The values below come from patent US4888353A, “Carboxamides useful as antiemetic or antipsychotic agents” (Erbamont, Inc., priority 1986, dated 1989).

Like-named read-outs stand apart in the source and are kept apart here.

Series [1] deals with apomorphine induced climbing behavior. In words: Antipsychotic screen: apomorphine induced climbing behavior. It is filed as in vivo. The conditions noted are these: mouse, apomorphine 1 mg/kg, observed 20 minutes after; for ED50: 20 min, read-out: Approx. 50% ED, apomorphine climbing. The protocol: The effect of each of the benzofurancarboxamides shown in Table VIII below on apomorphine induced climbing behavior was tested under the conditions described by Costetin et al. "Rapid and Dissociated Changes in Sensitivities of Different Dopamine Receptors in Mouse Brain," Nature, 257, 405 (1975). Each mouse was administered from 0.1 to 50 mg/kg of test compound and antagonism was observed 20 minutes after injection of 1 mg/kg apomorphine induced climbing behavior.

Another series relates to apomorphine emesis. In words: Antiemetic screen: Apomorphine Emesis (Dog). It is filed as in vivo, Beagle dogs. As to conditions: s.c., apomorphine HCl 0.1 mg/kg sc one hour after test compound, 2 dogs; for ED100: Canis lupus familiaris, sc, 1 h, read-out: 100% Effect Dosage level (dosage at which both animals were protected from apomorphine emesis). The protocol: Each of the test compounds shown in Table VIII was administered subcutaneously to two Beagle dogs at dosage levels of 0.05, 0.1, 1.0 and 10.0 mg/kg. One hour following administration of the test compound, each animal received 0.1 mg/kg, sc, of apomorphine HCl. Apomorphine consistently evokes an immediate emetic response through direct dopaminergic interaction at the medullary chemoreceptor trigger zone (CTZ). Antiemetic compounds which act at the CTZ and/or the midbrain vomiting center will block this effect. If both animals receiving a particular treatment are protected, (i.e., no emetic response within one hour after apomorphine), the test compound is considered active.

The subject of another series is dopamine receptors. As to conditions: cited from earlier work.
[2] abbreviates: oral (marked in cell; head prints s.c.).
Setting [3] is: ip, i.p. (marked in cell; head prints s.c.).

With `CCN1CCCC1CNC(=O)c1cc([N+](=O)[O-])cc2c1OCC2` (centres unmarked) [drawing 98 R = NO2, N-(1-ethyl-2-pyrrolidinylmethyl)-5-nitro-2,3-dihydrobenzo[b]furan-7-carboxamide], the ED50 in series [1] (setting [2]) is around 15 mg/kg; in series [1] (setting [3]) it was around 20 mg/kg. Moreover, the ED100 in the series with apomorphine emesis came out at 1 mg/kg. In the case of `CCN1CCCC1CNC(=O)c1cc(NS(C)(=O)=O)cc2c1OCC2` (centres unmarked) [drawing 98 R = NHSO2 CH3, N-(1-ethyl-2-pyrrolidinylmethyl)-5-methanesulfonamido-2,3-dihydrobenzo[b]furan-7-carboxamide], the ED50 in series [1] (setting [2]) is around 50 mg/kg. For the same molecule, the ED100 in the series on apomorphine emesis was 1 mg/kg.

As for `CCN1CCCC1CNC(=O)c1cccc2c1OC(C)(C)C2` (centres unmarked) [drawing 109 R1 = R2 = CH3], in series [1] (setting [3]), the ED50 was around 100 mg/kg. The ED100 with apomorphine emesis was found to be 10 mg/kg. As for `CCN1CCCC1CNC(=O)c1cccc2c1OC(C)C2` (centres unmarked) [drawing 99 R = H R' = H], in series [1] (setting [3]), the ED50 is around 20 mg/kg. In addition, the “100% Effect Dosage level (dosage at which both animals were protected from apomorphine emesis)” value in the series on apomorphine emesis is reported as 0.05 mg/kg.

As for `CCN1CCCC1CNC(=O)c1cc(Br)cc2c1OC(C)C2` (centres unmarked) [drawing 99 R = Br R' = H], the ED50 in series [1] (setting [3]) is around 2 mg/kg. The ED100 with apomorphine emesis stood at 0.005 mg/kg. On to `CCN1CCCC1CNC(=O)c1cc(Cl)c(Cl)c2c1OC(C)C2` (centres unmarked) [drawing 99 R = Cl R' = Cl], for which the ED50 in series [1] (setting [2]) is around 10 mg/kg. Take `CCN1CCCC1CNC(=O)c1cc(Cl)cc2ccoc12.O=C(O)/C=C/C(=O)O` (centres unmarked) [drawing 105 R = Cl R' = H, 5-chloro-N-(1-ethyl-2-pyrrolidinylmethyl)benzo[b]furan-7-carboxamide fumarate]: the ED50 in series [1] (setting [2]) is around 5 mg/kg. Further, the ED100 in the series on apomorphine emesis came out at 0.1 mg/kg. Consider `CCN1CCCC1CNC(=O)c1ccc(OC)c2c1OC(C)C2` (centres unmarked) [drawing 99 R = H R' = OCH3], for which the ED50 in series [1] (setting [2]) is around 25 mg/kg.

On to `CCN1CCCC1CNC(=O)c1ccc(Cl)c2c1OC(C)C2.O=C(O)/C=C/C(=O)O` (centres unmarked) [drawing 99 R = H R' = Cl, 4-chloro-N-(1-ethyl-2-pyrrolidinylmethyl)-2-methyl-2,3-dihydrobenzo[b]furan-7-carboxamide fumarate], for which the results for the ED50 in series [1] (setting [2]) and in series [1] (setting [3]) were around 40 mg/kg and around 25 mg/kg, respectively.

Regarding `CCN1CCCC1CNC(=O)c1cc(Br)cc2c1OCC2` (centres unmarked) [drawing 98 R = Br], the ED50 in series [1] (setting [2]) is around 15 mg/kg. Besides, in the series with apomorphine emesis, the ED100 worked out at 1 mg/kg. As for `CCN1CCCC1CNC(=O)c1cccc2c1OCC2` (centres unmarked) [drawing 98 R = H], in series [1] (setting [3]), the ED50 is around 20 mg/kg. Further, the ED100 in the series with apomorphine emesis is 1 mg/kg. With `CCN(CC)CCNC(=O)c1cc(Cl)c(N)cc1OC` [metoclopramide, 4-amino-5-chloro-N-[(2-diethylamino)ethyl]-2-methoxybenzamide], the “release of prolactin (side effect)” value in the series with dopamine receptors was “increase in the release of prolactin”. With `CCN1CCCC1CNC(=O)c1cccc2c1OC(C)C2` (centres unmarked) [drawing 109 R1 = H,R2 = CH3], the “Approx. 50% ED, apomorphine climbing” value in series [1] (i.p. (marked in cell; head prints s.c.)) was around 20 mg/kg. The “100% Effect Dosage level (dosage at which both animals were protected from apomorphine emesis)” value in the series with apomorphine emesis worked out at 0.85 mg/kg. With `CCN1CCCC1CNC(=O)c1cccc2ccoc12` (centres unmarked) [drawing 97 R = H], in series [1] (setting [3]), the ED50 is around 12 mg/kg. Further, the ED100 in the series with apomorphine emesis worked out at 10 mg/kg.

With `CCN1CCCC1CNC(=O)c1cc(Br)cc2ccoc12` (centres unmarked), in series [1] (setting [3]), the ED50 is around 0.5 mg/kg. Also, the ED100 in the series on apomorphine emesis is 0.1 mg/kg. Regarding `CCN1CCCC1CNC(=O)c1cc(Cl)cc2c1OCC2` (centres unmarked) [drawing 98 R = Cl], the ED50 in series [1] (setting [2]) is around 15 mg/kg; in series [1] (setting [3]), around 5 mg/kg. The ED100 in the series on apomorphine emesis was determined as 1 mg/kg. For `CCN1CCCC1CNC(=O)c1cccc2cc(C)oc12` (centres unmarked) [drawing 97 R = CH3], the ED50 in series [1] (setting [3]) is around 3 mg/kg. The ED100 with apomorphine emesis is 10 mg/kg. As to `CCN1CCCC1CNC(=O)c1cc(NC(C)=O)cc2c1OCC2.O=C(O)/C=C/C(=O)O` (centres unmarked) [drawing 98 R = NHCOCH3, 5-acetamido-N-(1-ethyl-2-pyrrolidinylmethyl)-2,3-dihydrobenzo[b]furan-7-carboxamide fumarate], the ED50 in series [1] (setting [3]) is around 50 mg/kg. With `CCN1CCCC1CNC(=O)c1cc(S(N)(=O)=O)ccc1OC` (centres unmarked) [sulpiride, 2-methoxy-N-(1-ethyl-2-pyrrolidinylmethyl)-5-sulfamoyl benzamide], in the series with dopamine receptors, the “release of prolactin (side effect)” value is on record as “increase in the release of prolactin”. For `CCN1CCCC1CNC(=O)c1cc(C)cc2c1OCC2.Cl` (centres unmarked) [drawing 98 R = CH3, N-(1-ethyl-2-pyrrolidinylmethyl)-5-methyl-2,3-dihydrobenzo[b]furan-7-carboxamide hydrochloride], the ED50 in series [1] (setting [3]) is around 3 mg/kg. For the same molecule, in the series on apomorphine emesis, the ED100 came to 0.1 mg/kg.

Regarding `CCN1CCCC1CNC(=O)c1cc(OC)cc2c1OC(C)C2` (centres unmarked) [drawing 99 R = OCH3 R' = H], the ED50 in series [1] (setting [2]) was around 1 mg/kg; in series [1] (setting [3]), around 25 mg/kg. The ED100 with apomorphine emesis is 0.1 mg/kg. `O=C(NC1CCN(Cc2ccccc2)C1)c1cc(Br)cc2ccoc12` (centres unmarked): the ED50 in series [1] (setting [3]) was around 30 mg/kg.

As for `CCN1CCCC1CNC(=O)c1cc(N)cc2c1OCC2.O=C(O)/C=C/C(=O)O` (centres unmarked) [drawing 98 R = NH2, 5-amino-N-(1-ethyl-2-pyrrolidinylmethyl)-2,3-dihydrobenzo[b]furan-7-carboxamide fumarate], the results for the ED50 in series [1] (setting [2]) and in series [1] (setting [3]) were around 20 mg/kg and around 25 mg/kg, respectively. For `CCN1CCCC1CNC(=O)c1cc(F)cc2ccoc12` (centres unmarked) [drawing 105 R = F R' = H], in the series on apomorphine emesis, the ED100 turned out to be 1 mg/kg.
